In the supplement of paper PMC10307832:

What was measured:
Assay in all cases: relative viability (nuclei count vs DMSO), 5 days (fraction); higher = more cells survive
[1] = system: HARA
Outline: (§1)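 Lung cancer cell lines were pin-tool dosed in 1536-well plates on the day after seeding, with either a lone drug or a fixed anchor-drug dose plus five library-drug doses (not always all listed) in √10 steps. Nuclei were counted on 4× images after 5 days. Relative viability is the ratio of treated-well to vehicle-well nuclei counts, with each value a median of duplicate plates.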

[2] = system: HCC-15
Outline: as §1

[3] = system: HOP-62
Outline: as §1

[4] = system: NCI-H1355
Outline: as §1

[5] = system: NCI-H1395
Outline: as §1

[6] = system: NCI-H1734
Outline: as §1

[7] = system: NCI-H1755
Outline: as §1

[8] = system: NCI-H1792
Outline: as §1

[9] = system: NCI-H1793
Outline: as §1

[10] = system: NCI-H1993
Outline: as §1

[11] = system: NCI-H2170
Outline: as §1

[12] = system: NCI-H2347
Outline: as §1

[13] = system: NCI-H358
Outline: as §1

[14] = system: NCI-H522
Outline: as §1

[15] = system: NCI-H647
Outline: as §1

[16] = system: NCI-H838
Outline: as §1

[17] = system: COR-L 105
Outline: as §1

[18] = system: COR-L23
Outline: as §1

[19] = system: NCI-H2009
Outline: as §1

[20] = system: NCI-H2228
Outline: as §1

[21] = system: SK-MES-1
Outline: as §1

[22] = system: UMC-11
Outline: as §1

## Nc1ccn([C@@H]2O[C@H](CO)[C@@H](O)[C@@H]2O)c(=O)n1 [Cytarabine] + NC(=O)Nc1cc(-c2cccc(F)c2)sc1C(=O)N[C@H]1CCCNC1 [AZD7762] (partner 0.2 µM)
[1]; first compound 0.005 µM
  relative viability: 0.298
[1]; first compound 0.01581 µM
  relative viability: 0.211
[1]; first compound 0.05 µM
  relative viability: 0.176
[1]; first compound 0.1581 µM
  relative viability: 0.157
[1]; first compound 0.5 µM
  relative viability: 0.171
[2]; first compound 0.005 µM
  relative viability: 1.11
[2]; first compound 0.01581 µM
  relative viability: 1.52
[2]; first compound 0.05 µM
  relative viability: 1.45
[2]; first compound 0.1581 µM
  relative viability: 1.06
[2]; first compound 0.5 µM
  relative viability: 0.913
[3]; first compound 0.005 µM
  relative viability: 0.391
[3]; first compound 0.01581 µM
  relative viability: 0.157
[3]; first compound 0.05 µM
  relative viability: 0.203
[3]; first compound 0.1581 µM
  relative viability: 0.107
[3]; first compound 0.5 µM
  relative viability: 0.0888
[4]; first compound 0.005 µM
  relative viability: 0.455
[4]; first compound 0.01581 µM
  relative viability: 0.455
[4]; first compound 0.05 µM
  relative viability: 0.356
[4]; first compound 0.1581 µM
  relative viability: 0.181
[4]; first compound 0.5 µM
  relative viability: 0.188
[5]; first compound 0.005 µM
  relative viability: 0.383
[5]; first compound 0.01581 µM
  relative viability: 0.39
[5]; first compound 0.05 µM
  relative viability: 0.331
[5]; first compound 0.1581 µM
  relative viability: 0.364
[5]; first compound 0.5 µM
  relative viability: 0.351
[6]; first compound 0.005 µM
  relative viability: 0.258
[6]; first compound 0.01581 µM
  relative viability: 0.172
[6]; first compound 0.05 µM
  relative viability: 0.159
[6]; first compound 0.1581 µM
  relative viability: 0.0997
[6]; first compound 0.5 µM
  relative viability: 0.102
[7]; first compound 0.005 µM
  relative viability: 0.501
[7]; first compound 0.01581 µM
  relative viability: 0.314
[7]; first compound 0.05 µM
  relative viability: 0.334
[7]; first compound 0.1581 µM
  relative viability: 0.372
[7]; first compound 0.5 µM
  relative viability: 0.298
[8]; first compound 0.01581 µM
  relative viability: 0.39
[8]; first compound 0.05 µM
  relative viability: 0.275
[8]; first compound 0.1581 µM
  relative viability: 0.0675
[8]; first compound 0.5 µM
  relative viability: 0.0488
[9]; first compound 0.005 µM
  relative viability: 0.304
[9]; first compound 0.01581 µM
  relative viability: 0.417
[9]; first compound 0.05 µM
  relative viability: 0.341
[9]; first compound 0.1581 µM
  relative viability: 0.149
[9]; first compound 0.5 µM
  relative viability: 0.111
[10]; first compound 0.005 µM
  relative viability: 0.766
[10]; first compound 0.01581 µM
  relative viability: 0.562
[10]; first compound 0.05 µM
  relative viability: 0.654
[10]; first compound 0.1581 µM
  relative viability: 0.523
[10]; first compound 0.5 µM
  relative viability: 0.523
[11]; first compound 0.005 µM
  relative viability: 0.666
[11]; first compound 0.01581 µM
  relative viability: 0.515
[11]; first compound 0.05 µM
  relative viability: 0.347
[11]; first compound 0.1581 µM
  relative viability: 0.173
[11]; first compound 0.5 µM
  relative viability: 0.136
[12]; first compound 0.005 µM
  relative viability: 0.721
[12]; first compound 0.01581 µM
  relative viability: 0.525
[12]; first compound 0.05 µM
  relative viability: 0.47
[12]; first compound 0.1581 µM
  relative viability: 0.369
[12]; first compound 0.5 µM
  relative viability: 0.286
[13]; first compound 0.005 µM
  relative viability: 0.419
[13]; first compound 0.01581 µM
  relative viability: 0.229
[13]; first compound 0.05 µM
  relative viability: 0.208
[13]; first compound 0.1581 µM
  relative viability: 0.221
[13]; first compound 0.5 µM
  relative viability: 0.182
[14]; first compound 0.005 µM
  relative viability: 0.827
[14]; first compound 0.01581 µM
  relative viability: 0.605
[14]; first compound 0.05 µM
  relative viability: 0.72
[14]; first compound 0.1581 µM
  relative viability: 0.426
[14]; first compound 0.5 µM
  relative viability: 0.34
[15]; first compound 0.005 µM
  relative viability: 0.188
[15]; first compound 0.01581 µM
  relative viability: 0.0767
[15]; first compound 0.05 µM
  relative viability: 0.0765
[15]; first compound 0.1581 µM
  relative viability: 0.0321
[15]; first compound 0.5 µM
  relative viability: 0.0304
[16]; first compound 0.005 µM
  relative viability: 0.738
[16]; first compound 0.01581 µM
  relative viability: 0.699
[16]; first compound 0.05 µM
  relative viability: 0.665
[16]; first compound 0.1581 µM
  relative viability: 0.652
[16]; first compound 0.5 µM
  relative viability: 0.631

## Cc1sc2c(c1C)C(c1ccc(Cl)cc1)=N[C@@H](CC(=O)OC(C)(C)C)c1nnc(C)n1-2 [JQ1] + Cc1cc(Nc2cc(N3CCN(C)CC3)nc(Sc3ccc(NC(=O)C4CC4)cc3)n2)n[nH]1 [Tozasertib] (partner 0.1 µM)
[17]; first compound 0.04 µM
  relative viability: 0.359
[17]; first compound 0.1265 µM
  relative viability: 0.315
[17]; first compound 0.4 µM
  relative viability: 0.297
[17]; first compound 1.265 µM
  relative viability: 0.235
[17]; first compound 4 µM
  relative viability: 0.112
[18]; first compound 0.04 µM
  relative viability: 0.217
[18]; first compound 0.1265 µM
  relative viability: 0.148
[18]; first compound 0.4 µM
  relative viability: 0.154
[18]; first compound 1.265 µM
  relative viability: 0.11
[18]; first compound 4 µM
  relative viability: 0.109
[1]; first compound 0.04 µM
  relative viability: 0.112
[1]; first compound 0.1265 µM
  relative viability: 0.122
[1]; first compound 0.4 µM
  relative viability: 0.123
[1]; first compound 1.265 µM
  relative viability: 0.08
[1]; first compound 4 µM
  relative viability: 0.0561
[2]; first compound 0.04 µM
  relative viability: 0.417
[2]; first compound 0.4 µM
  relative viability: 0.314
[2]; first compound 1.265 µM
  relative viability: 0.119
[2]; first compound 4 µM
  relative viability: 0.0896
[3]; first compound 0.04 µM
  relative viability: 0.361
[3]; first compound 0.1265 µM
  relative viability: 0.305
[3]; first compound 0.4 µM
  relative viability: 0.192
[3]; first compound 1.265 µM
  relative viability: 0.122
[3]; first compound 4 µM
  relative viability: 0.122
[4]; first compound 0.04 µM
  relative viability: 0.522
[4]; first compound 0.1265 µM
  relative viability: 0.387
[4]; first compound 0.4 µM
  relative viability: 0.324
[4]; first compound 1.265 µM
  relative viability: 0.23
[4]; first compound 4 µM
  relative viability: 0.202
[5]; first compound 0.04 µM
  relative viability: 0.734
[5]; first compound 0.1265 µM
  relative viability: 0.681
[5]; first compound 0.4 µM
  relative viability: 0.652
[5]; first compound 1.265 µM
  relative viability: 0.495
[5]; first compound 4 µM
  relative viability: 0.419
[6]; first compound 0.04 µM
  relative viability: 0.259
[6]; first compound 0.1265 µM
  relative viability: 0.209
[6]; first compound 0.4 µM
  relative viability: 0.215
[6]; first compound 1.265 µM
  relative viability: 0.204
[6]; first compound 4 µM
  relative viability: 0.212
[7]; first compound 0.04 µM
  relative viability: 0.587
[7]; first compound 0.1265 µM
  relative viability: 0.584
[7]; first compound 0.4 µM
  relative viability: 0.566
[7]; first compound 1.265 µM
  relative viability: 0.444
[7]; first compound 4 µM
  relative viability: 0.411
[9]; first compound 0.04 µM
  relative viability: 0.355
[9]; first compound 0.1265 µM
  relative viability: 0.316
[9]; first compound 0.4 µM
  relative viability: 0.282
[9]; first compound 1.265 µM
  relative viability: 0.185
[9]; first compound 4 µM
  relative viability: 0.226
[10]; first compound 0.04 µM
  relative viability: 0.509
[10]; first compound 0.1265 µM
  relative viability: 0.62
[10]; first compound 0.4 µM
  relative viability: 0.513
[10]; first compound 1.265 µM
  relative viability: 0.424
[10]; first compound 4 µM
  relative viability: 0.489
[19]; first compound 0.04 µM
  relative viability: 0.697
[19]; first compound 0.1265 µM
  relative viability: 0.414
[19]; first compound 0.4 µM
  relative viability: 0.385
[19]; first compound 1.265 µM
  relative viability: 0.199
[19]; first compound 4 µM
  relative viability: 0.187
[11]; first compound 0.04 µM
  relative viability: 0.711
[11]; first compound 0.1265 µM
  relative viability: 0.64
[11]; first compound 0.4 µM
  relative viability: 0.467
[11]; first compound 1.265 µM
  relative viability: 0.352
[11]; first compound 4 µM
  relative viability: 0.194
[20]; first compound 0.04 µM
  relative viability: 0.286
[20]; first compound 0.1265 µM
  relative viability: 0.284
[20]; first compound 0.4 µM
  relative viability: 0.207
[20]; first compound 1.265 µM
  relative viability: 0.126
[20]; first compound 4 µM
  relative viability: 0.08
[12]; first compound 0.04 µM
  relative viability: 0.539
[12]; first compound 0.1265 µM
  relative viability: 0.554
[12]; first compound 0.4 µM
  relative viability: 0.489
[12]; first compound 1.265 µM
  relative viability: 0.308
[12]; first compound 4 µM
  relative viability: 0.237
[13]; first compound 0.04 µM
  relative viability: 0.102
[13]; first compound 0.1265 µM
  relative viability: 0.102
[13]; first compound 0.4 µM
  relative viability: 0.124
[13]; first compound 1.265 µM
  relative viability: 0.107
[13]; first compound 4 µM
  relative viability: 0.0861
[14]; first compound 0.04 µM
  relative viability: 0.598
[14]; first compound 0.1265 µM
  relative viability: 0.503
[14]; first compound 0.4 µM
  relative viability: 0.454
[14]; first compound 1.265 µM
  relative viability: 0.434
[14]; first compound 4 µM
  relative viability: 0.339
[15]; first compound 0.04 µM
  relative viability: 0.353
[15]; first compound 0.1265 µM
  relative viability: 0.203
[15]; first compound 0.4 µM
  relative viability: 0.202
[15]; first compound 1.265 µM
  relative viability: 0.0994
[15]; first compound 4 µM
  relative viability: 0.0445
[16]; first compound 0.04 µM
  relative viability: 0.26
[16]; first compound 0.1265 µM
  relative viability: 0.221
[16]; first compound 0.4 µM
  relative viability: 0.263
[16]; first compound 1.265 µM
  relative viability: 0.179
[16]; first compound 4 µM
  relative viability: 0.134
[21]; first compound 0.04 µM
  relative viability: 0.929
[21]; first compound 0.1265 µM
  relative viability: 0.507
[21]; first compound 0.4 µM
  relative viability: 0.419
[21]; first compound 1.265 µM
  relative viability: 0.208
[21]; first compound 4 µM
  relative viability: 0.171
[22]; first compound 0.04 µM
  relative viability: 0.214
[22]; first compound 0.1265 µM
  relative viability: 0.192
[22]; first compound 0.4 µM
  relative viability: 0.173
[22]; first compound 1.265 µM
  relative viability: 0.175
[22]; first compound 4 µM
  relative viability: 0.162
